# Laboratory results from US20140199277A1, “Methods of Treatment of Retinal Degeneration Diseases” (priority 2011, published 2014).
# Experiments:
# Nestin-CRE transgene [1] = experiment: Endogenous BM cell fusion-mediated reprogramming induced by intravitreal BIO in Nestin-Cre mice with BM^R26Y; format: in vivo, mouse; conditions: 24 h
# Method: BM transplantation was conducted as previously reported with minor modifications. The BM of 4- to 6-week-old R26Y or Nestin-Cre recipient mice was reconstituted with BM cells from the tibias and femurs of RFP/CRE or R26Y transgenic mice respectively. BM cells (1×10^7 cells) were injected intravenously into the recipients 3 hours after irradiation with γ-rays (9 Gy). The eyes of the recipients were protected with lead shields to prevent radiation-induced damage (radiation retinopathy). Four weeks after transplantation, the peripheral blood of chimeric mice was extracted from the tail vein, and the reconstituted BM was assessed.
# For fluoresceine immunostaining, the primary antibodies used were: anti-Nanog (1:200, R&D), anti-Oct4 (1:100, AbCam), anti-Nestin (1:300, Abcam), anti-GATA4 (1:500, Abcam), anti-Otx2 (1:200, Abcam), anti-Noggin (1:200, Abcam), anti-Hand1 (1:400, Abcam), anti-Tuj-1 (1:100, Abcam), anti-Thy1.1 (1:100, Abcam), anti-syntaxin (1:50, Sigma), anti-glutamine synthetase (Sigma, 1:100) anti-Annexin V (1:200, Abcam), anti-Ki67 (Sigma, 1.100) and anti-BrdU (1:300, Sigma). The secondary antibodies used were: anti-mouse IgG and anti-rabbit IgG antibodies conjugated with Alexa Fluor 488, Alexa Fluor 546 or Alexa Fluor 633 (1:1000; Molecular Probes, Invitrogen).
# (§1) The numbers of immunoreactive or of Nanog-GFP- and -YFP-positive cells within three different retinal areas (40× field) were counted in individual sections. A total of ten serial sections were examined for each eye, from at least three different mice. For statistical analysis, the data were expressed as means±SEM, as pooled from at least three independent experiments, each carried out in duplicate. The experiments were performed using at least three different mice. Differences were examined using the unpaired Student t-test.
# β-catenin signalling = experiment: Activation of β-catenin signalling in treated HSPCs (RT-PCR of Axin2, nuclear translocation of β-catenin); format: cell-based, mouse
# From the text: According to Treatment A, activation of the Wnt/β-catenin signalling pathway is, at least partially, provided by the implanted cells having their Wnt/β-catenin signalling pathway activated and being selected from the group consisting of a hematopoietic stem cell, a progenitor cell, and a mesenchymal stem cell. The subject to be treated may also have activated the Wnt/β-catenin signalling pathway after retinal damage or injury. In general, the Wnt/β-catenin signalling pathway is activated when the target genes are transcribed; by illustrative, activation of the Wnt/β-catenin signalling pathway may be confirmed by conventional techniques, for example, by analyzing the expression of the target genes, e.g., Axin2, by means known by the skilled person in the art to analyze the expression of genes, such as, for example, RT-PCR (reverse transcription-polymerase chain reaction), or by detection of β-catenin translocation in the nuclei of the cells by conventional techniques, such as, for example, by immunostaining, or by detecting the phosphorylation of Dishevelled or the phosphorylation of the LRP tail, etc.
# The stem cells (SCs) were left non-treated or were pretreated with 100 ng/ml Wnt3a or 1 μM BIO, for 24 h, and finally 5×10^5 cells were injected intravitreally into the eyes of the anaesthetised mice. […]
# neural progenitor cells = conditions: cited from earlier work; for reprogramming of neural precursor cells after cell fusion: periodic activation of the Wnt/β-catenin pathway in ESCs
# Nanog-GFP transgene = experiment: In-vivo reprogramming of retinal neurons after fusion, Nanog-GFP-puro mice; parameters: species or system mouse; conditions: for GFP-positive cells after transplantation of pretreated ESCs: ESCs pretreated before transplantation, NMDA-injured eyes
# Method: (§2) Mice at the age of 3 months were anaesthetised by injection of ketamine: metomidine (80 mg/kg: 1.0 mg/kg, intraperitoneal (i.p.)). To induce retinal damage, the animals were treated intravitreally with 2 μl of 20 mM N-methyl-D-aspartate (NMDA) (total 40 nmol; Sigma) for 24 h [Timmers et al., Mol Vis 7, 131-137 (2001)]. Control eyes received 2 μl PBS. For the BrdU incorporation assays, the mice received intraperitoneal (i.p.) BrdU administration of 50 mg/kg body weight.
# (§3) The stem cells (SCs) were left non-treated or were pretreated with 100 ng/ml Wnt3a or 1 μM BIO, for 24 h, and finally 5×10^5 cells were injected intravitreally into the eyes of the anaesthetised mice. The mice were sacrificed by cervical dislocation, and their eyeballs were enucleated for histological analyses.
# (§4) Tissues were fixed by immersion in 4% paraformaldehyde overnight, and then embedded in OCT compound (Tissue-Tek). Horizontal serial sections of 10 μm thickness were processed for immunohistochemistry, and visualisation of Nanog-GFP and Rosa26-YFP fluorescence was performed by fluorescent microscopy.
# (§5) Percentages of GFP and YFP positive cells were evaluated counterstaining the tissue sections with DAPI (Vectashield, Vector Laboratories, Burlingame, Calif., USA), and they were photographed using either an Axioplan microscope (Zeiss) or a Leica laser confocal microscope system.
# as §1
# retinal neurons = experiment: Damage-dependent cell fusion in vivo after intravitreal transplantation in R26Y eyes; parameters: species or system mouse; conditions: NMDA-damaged eyes of R26Y mice
# Method: as §2
# Retinal stem and progenitor cells (RSPCs) were isolated from the ciliary margin of adult Cre mice as previously described [Sanges et al., Proc Natl Acad Sci USA 103, 17366-17371 (2006)]. […]
# as §4, §5
# The numbers of immunoreactive or of Nanog-GFP- and -YFP-positive cells within three different retinal areas (40× field) were counted in individual sections. […]
# human GSK-3 = conditions: cited from earlier work
# Nestin-CRE transgene [2] = experiment: In-vivo reprogramming of retinal neurons after fusion, Nestin-CRE mice; parameters: species or system mouse; conditions: injected immediately after NMDA, HSPCs after 24 h
# Method: as §2, §3, §4
# Percentages of GFP and YFP positive cells were evaluated counterstaining the tissue sections with DAPI (Vectashield, Vector Laboratories, Burlingame, Calif., USA), and they were photographed using either an Axioplan microscope (Zeiss) or a Leica laser confocal microscope system. […]
# β-catenin = β-catenin immunofluorescence in retinal sections of NMDA-treated eyes; format: in vivo, mouse; conditions: NMDA-damaged eyes
# Method: FIG. 12. Analysis of reprogramming of retinal neurons after fusion. (A) Immunofluorescence staining using an anti β-catenin antibody (red) was performed on sections from eyes treated either with NMDA, with both NMDA and DKK1 or untreated as control. The expression and nuclear accumulation of β-catenin in retinal cells detected in NMDA-damaged eyes (red arrows) is reduced after treatment with DKK1. Scale bar: 20 μm. (B) Schematic representation of in-vivo reprogramming experimental plan. Red-labelled SPCs either non-treated (control), or treated for 24 h with BIO were injected in NMDA-damaged or undamaged eyes of Nanog-GFP-Puro recipient mice. The expression of GFP in reprogrammed hybrids was analysed one day after injection. […] Nuclei were counterstained with DAPI.
# To assess the role of activation of the endogenous Wnt/β-catenin signalling pathway in the reprogramming of retinal neurons, in both of these mouse models, DKK1 was also injected immediately after NMDA injection; DKK1 is an inhibitor of the Wnt/β-catenin pathway [Osakada et al. (2007) cited supra, FIG. 12A]. HSPCs were transplanted after 24 h, and mice were sacrificed 24 h later.
molecule,measurement,setting,value
"O=C1Nc2cc(Br)ccc2/C1=C1/Nc2ccccc2/C1=N\O [BIO, 6-bromoindirubin-3'-oxime]",YFP-positive hybrids Annexin-V positive,Nestin-CRE transgene [1]; NMDA+BIO intravitreal,1%
same,YFP-positive hybrids positive for Ki67,Nestin-CRE transgene [1]; NMDA+BIO intravitreal,About 8%
same,YFP-positive hybrids positive for Nanog,Nestin-CRE transgene [1]; NMDA+BIO intravitreal,70%
same,YFP-positive hybrids positive for Oct4,Nestin-CRE transgene [1]; NMDA+BIO intravitreal,50%
same,YFP-positive cells in the gcl and inl,Nestin-CRE transgene [1]; intravitreal with NMDA,observed
same,β-catenin signalling in HSPCs,β-catenin signalling,activates β-catenin signalling
same,fusion efficiency of ESCs with neural progenitor cells,neural progenitor cells; in vitro,does not increase the fusion efficiency
same,reprogramming of neural precursor cells after cell fusion,neural progenitor cells,strongly enhances
same,GFP-positive cells after transplantation of pretreated ESCs,Nanog-GFP transgene,strikingly increased
same,"effect of pre-treatment on fusion efficiency of HSPCs, ESCs or RSPCs",retinal neurons,did not enhance the fusion efficiency
"Nc1nc(NCCNc2ncc(-n3ccnc3)c(-c3ccc(Cl)cc3Cl)n2)ccc1[N+](=O)[O-] [CHIR 98014, 6-pyridinediamine, N6-[2-[[4-(2,4-dichlorophenyl)-5-(1H-imidazol-1-yl)-2-pyrimidinyl]amino]ethyl]-3-nitro-]",inhibition of human GSK-3,human GSK-3,potently
"Cc1c[nH]c(-c2cnc(NCCNc3ccc(C#N)cn3)nc2-c2ccc(Cl)cc2Cl)n1 [CHIR 99021, 6-{2-[4-(2,4-dichloro-phenyl)-5-(4-methyl-1H-imidazol-2-yl)-pyrimidin-2-ylamino]-ethylamino}-nicotinonitrile]",inhibition of human GSK-3,human GSK-3,potently
"Wnt3a: Wnt protein isoform, Wnt/β-catenin signalling pathway activator (protein, UniProt P56704 19-352, looked up) Protein Wnt-3a: SYPIWWSLAVGPQYSSLGSQPILCASIPGLVPKQLRFCRNYVEIMPSVAEGIKIGIQECQHQFRGRRWNCTTVHDSLAIFGPVLDKATRESAFVHAIASAGVAFAVTRSCAEGTAAICGCSSRHQGSPGKGWKWGGCSEDIEFGGMVSREFADARENRPDARSAMNRHNNEAGRQAIASHMHLKCKCHGLSGSCEVKTCWWSQPDFRAIGDFLKDKYDSASEMVVEKHRESRGWVETLRPRYTYFKVPTERDLVYYEASPNFCEPNPETGSFGTRDRTCNVSSHGIDGCDLLCCGRGHNARAERRREKCRCVFHWCCYVSCQECTRVYDVHTCK",reprogramming of neural precursor cells after cell fusion,neural progenitor cells,strongly enhances
same,GFP-positive cells after transplantation of pretreated ESCs,Nanog-GFP transgene,strikingly increased
"DKK1: an inhibitor of the Wnt/β-catenin pathway (protein, UniProt O94907 32-266, looked up) Dickkopf-related protein 1: TLNSVLNSNAIKNLPPPLGGAAGHPGSAVSAAPGILYPGGNKYQTIDNYQPYPCAEDEECGTDEYCASPTRGGDAGVQICLACRKRRKRCMRHAMCCPGNYCKNGICVSSDQNHFRGEIEETITESFGNDHSTLDGYSRRTTLSSKMYHTKGQEGSVCLRSSDCASGLCCARHFWSKICKPVLKEGQVCTKHRRKGSHGLEIFQRCYCGEGLSCRIQKDHHQASNSSRLHTCQRH",reprogramming of neuron-HSPC hybrids,Nestin-CRE transgene [2],almost completely blocked
same,expression and nuclear accumulation of β-catenin in retinal cells,β-catenin,reduced
same,reprogramming of neuron-HSPC hybrids,"Nanog-GFP transgene; injected immediately after NMDA, HSPCs after 24 h, Nanog-GFP-puro mice",almost completely blocked
